pKi: −log10 of the molar value.

The pKi is −log10 of the Ki, conventionally taken in molar units.

Some targets named below: Carbonic anhydrase 12 (Homo sapiens, UniProt O43570); Carbonic anhydrase 3 (Homo sapiens, UniProt P07451); Carbonic anhydrase 7 (Homo sapiens, UniProt P43166); Carbonic anhydrase 14 (Homo sapiens, UniProt Q9ULX7); Carbonic anhydrase 4 (Homo sapiens, UniProt P22748); Carbonic anhydrase 6 (Homo sapiens, UniProt P23280); Carbonic anhydrase 13 (Homo sapiens, UniProt Q8N1Q1); Carbonic anhydrase 9 (Homo sapiens, UniProt Q16790).

Test [1] deals with Carbonic anhydrase 5B, mitochondrial (Homo sapiens, UniProt Q9Y2D0).
Sequence of Carbonic anhydrase 5B, mitochondrial (Q9Y2D0 whole entry): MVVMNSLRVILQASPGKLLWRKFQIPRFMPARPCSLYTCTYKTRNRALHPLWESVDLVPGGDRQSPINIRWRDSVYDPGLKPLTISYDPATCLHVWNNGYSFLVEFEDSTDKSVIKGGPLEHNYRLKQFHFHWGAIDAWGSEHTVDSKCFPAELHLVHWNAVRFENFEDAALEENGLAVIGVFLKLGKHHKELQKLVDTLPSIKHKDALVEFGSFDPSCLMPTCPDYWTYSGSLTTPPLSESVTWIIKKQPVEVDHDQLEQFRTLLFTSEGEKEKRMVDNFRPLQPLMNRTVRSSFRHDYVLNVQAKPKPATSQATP
Description: Inhibition of recombinant human CA5b preincubated for 15 mins prior to testing measured for 10 to 100 secs by phenol red based stopped-flow CO2 hydration assay
In test [2] the target is Carbonic anhydrase 5A, mitochondrial (Homo sapiens, UniProt P35218).
Sequence of Carbonic anhydrase 5A, mitochondrial (P35218 whole entry): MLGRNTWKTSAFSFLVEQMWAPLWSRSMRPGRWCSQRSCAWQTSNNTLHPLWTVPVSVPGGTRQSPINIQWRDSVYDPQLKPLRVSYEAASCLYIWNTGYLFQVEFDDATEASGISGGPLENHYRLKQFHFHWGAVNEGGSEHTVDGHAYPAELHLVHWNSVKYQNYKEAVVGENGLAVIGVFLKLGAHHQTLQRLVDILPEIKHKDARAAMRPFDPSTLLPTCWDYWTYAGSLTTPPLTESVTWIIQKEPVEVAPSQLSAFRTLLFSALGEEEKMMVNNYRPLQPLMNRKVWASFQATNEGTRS
Description: Inhibition of recombinant human CA5a preincubated for 15 mins prior to testing measured for 10 to 100 secs by phenol red based stopped-flow CO2 hydration assay

Sequence of Carbonic anhydrase 4 (P22748 whole entry): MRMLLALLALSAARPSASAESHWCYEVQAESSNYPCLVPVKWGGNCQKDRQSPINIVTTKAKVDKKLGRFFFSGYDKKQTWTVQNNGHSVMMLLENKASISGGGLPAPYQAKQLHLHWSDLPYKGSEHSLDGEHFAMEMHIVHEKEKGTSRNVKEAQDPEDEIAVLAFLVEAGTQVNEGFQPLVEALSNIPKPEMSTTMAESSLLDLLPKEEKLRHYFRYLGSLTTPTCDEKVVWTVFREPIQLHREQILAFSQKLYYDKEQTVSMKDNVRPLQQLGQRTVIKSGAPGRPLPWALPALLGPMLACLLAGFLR
Sequence of Carbonic anhydrase 6 (P23280 whole entry): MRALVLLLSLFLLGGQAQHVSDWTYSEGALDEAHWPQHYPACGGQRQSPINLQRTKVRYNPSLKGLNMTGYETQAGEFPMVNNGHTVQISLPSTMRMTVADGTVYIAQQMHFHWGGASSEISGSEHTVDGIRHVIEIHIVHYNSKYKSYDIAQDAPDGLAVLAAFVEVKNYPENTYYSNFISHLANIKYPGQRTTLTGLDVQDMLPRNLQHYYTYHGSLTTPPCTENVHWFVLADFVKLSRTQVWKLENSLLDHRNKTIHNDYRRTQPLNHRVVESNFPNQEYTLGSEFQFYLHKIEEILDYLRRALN
Sequence of Carbonic anhydrase 14 (Q9ULX7 whole entry): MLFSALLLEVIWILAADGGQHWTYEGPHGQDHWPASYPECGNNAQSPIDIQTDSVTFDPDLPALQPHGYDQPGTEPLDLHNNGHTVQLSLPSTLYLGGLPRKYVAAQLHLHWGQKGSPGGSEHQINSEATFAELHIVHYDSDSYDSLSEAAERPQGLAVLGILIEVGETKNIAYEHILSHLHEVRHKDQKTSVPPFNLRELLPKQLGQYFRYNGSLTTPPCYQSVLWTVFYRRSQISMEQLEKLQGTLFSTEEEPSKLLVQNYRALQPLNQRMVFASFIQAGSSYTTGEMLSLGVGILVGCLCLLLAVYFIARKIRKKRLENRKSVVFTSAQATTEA
Sequence of Carbonic anhydrase 3 (P07451 whole entry): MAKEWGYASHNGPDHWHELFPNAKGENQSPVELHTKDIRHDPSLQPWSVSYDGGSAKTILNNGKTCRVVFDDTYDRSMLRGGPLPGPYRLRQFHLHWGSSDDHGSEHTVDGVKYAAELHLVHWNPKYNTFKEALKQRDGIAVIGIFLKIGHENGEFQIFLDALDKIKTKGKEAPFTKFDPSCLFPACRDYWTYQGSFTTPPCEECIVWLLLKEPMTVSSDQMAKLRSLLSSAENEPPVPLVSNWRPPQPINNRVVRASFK
Sequence of Carbonic anhydrase 12 (O43570 whole entry): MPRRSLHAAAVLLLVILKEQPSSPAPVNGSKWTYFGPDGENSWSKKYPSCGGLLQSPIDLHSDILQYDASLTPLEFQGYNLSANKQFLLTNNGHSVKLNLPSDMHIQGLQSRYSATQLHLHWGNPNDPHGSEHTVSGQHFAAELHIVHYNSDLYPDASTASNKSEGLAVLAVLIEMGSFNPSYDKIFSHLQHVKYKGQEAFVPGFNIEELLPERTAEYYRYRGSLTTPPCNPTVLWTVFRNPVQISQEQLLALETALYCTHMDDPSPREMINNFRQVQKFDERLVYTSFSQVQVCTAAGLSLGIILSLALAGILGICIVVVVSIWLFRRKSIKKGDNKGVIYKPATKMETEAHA
Sequence of Carbonic anhydrase 7 (P43166 whole entry): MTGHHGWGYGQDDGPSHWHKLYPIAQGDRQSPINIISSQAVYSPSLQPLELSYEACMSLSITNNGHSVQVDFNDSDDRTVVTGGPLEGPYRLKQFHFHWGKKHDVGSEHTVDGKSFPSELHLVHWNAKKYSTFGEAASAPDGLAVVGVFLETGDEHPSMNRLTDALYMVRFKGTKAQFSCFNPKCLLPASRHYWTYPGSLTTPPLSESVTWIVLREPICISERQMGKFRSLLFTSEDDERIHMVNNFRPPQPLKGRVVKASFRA
Sequence of Carbonic anhydrase 13 (Q8N1Q1 whole entry): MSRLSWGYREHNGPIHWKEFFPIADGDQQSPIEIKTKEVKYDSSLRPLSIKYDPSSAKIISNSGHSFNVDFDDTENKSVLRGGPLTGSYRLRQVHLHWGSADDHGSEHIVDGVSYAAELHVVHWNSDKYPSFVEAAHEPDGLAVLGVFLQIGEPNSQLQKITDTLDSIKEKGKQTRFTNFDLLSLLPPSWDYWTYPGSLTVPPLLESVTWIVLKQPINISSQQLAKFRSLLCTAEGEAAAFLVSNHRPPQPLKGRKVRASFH
Description for Carbonic anhydrase 12: Inhibition of recombinant human CA12 preincubated for 15 mins prior to testing measured for 10 to 100 secs by phenol red based stopped-flow CO2 hydration assay
Description for Carbonic anhydrase 13: Inhibition of recombinant human CA13 preincubated for 15 mins prior to testing measured for 10 to 100 secs by phenol red based stopped-flow CO2 hydration assay
Description for Carbonic anhydrase 14: Inhibition of recombinant human CA14 preincubated for 15 mins prior to testing measured for 10 to 100 secs by phenol red based stopped-flow CO2 hydration assay
Description for Carbonic anhydrase 3: Inhibition of recombinant human CA3 preincubated for 15 mins prior to testing measured for 10 to 100 secs by phenol red based stopped-flow CO2 hydration assay
Description for Carbonic anhydrase 4: Inhibition of recombinant human CA4 preincubated for 15 mins prior to testing measured for 10 to 100 secs by phenol red based stopped-flow CO2 hydration assay
Description for Carbonic anhydrase 6: Inhibition of recombinant human CA6 preincubated for 15 mins prior to testing measured for 10 to 100 secs by phenol red based stopped-flow CO2 hydration assay
Description for Carbonic anhydrase 7: Inhibition of recombinant human CA7 preincubated for 15 mins prior to testing measured for 10 to 100 secs by phenol red based stopped-flow CO2 hydration assay

On to `NC(N)=Nc1nc(CSCCC(N)=NS(N)(=O)=O)cs1` [FAMOTIDINE], for which the pKi is 7.34 on Carbonic anhydrase 12; less than 5.00 on Carbonic anhydrase 3; 8.52 at Carbonic anhydrase 7; 5.27 in [1]; 6.17 at Carbonic anhydrase 14; 6.03 on Carbonic anhydrase 4. Also, the pKi at Carbonic anhydrase 6 was 7.01; on Carbonic anhydrase 13 it was 6.77; in test [2], 5.84; at Carbonic anhydrase 9, 6.90.

The values are drawn from ChEMBL document CHEMBL4266011 (ACS Med Chem Lett, 2018).
